Measured values from publication PMC6418270, “The pharmacological and functional characterization of the serotonergic system in Anopheles gambiae and Aedes aegypti: influences on flight and blood-feeding behavior” (Scientific Reports, 2019).
Where a name gives a salt, the structure may show the parent alone.

What was measured:
[1] = system: Ae. aegypti; test: Blood-feeding assay after ingestion of compound in 10% sucrose; type: in vivo, Aedes aegypti
Procedure: Sucrose solution was withheld from newly-emerged mosquitoes for two days. On the third day, the mosquitoes were presented with a cotton ball saturated with 400 μL of a 10% sucrose solution laced with compound or the respective control for five days. The cotton ball was exchanged every other day with a fresh one. Seven to ten-day old female mosquitoes were treated with compound or appropriate control through microinjection post cold-anesthetization or ingestion. Two mL of human O^+ blood (BioChemed Services, Winchester, VA) was utilized to cover the concave surface of an inverted baby food jar. Hog intestine sealed the opening to simulate the puncturing of a host’s skin. The feeding membrane was placed on the top of a mosquito cage, and hot water was poured into the jar to warm the blood. After a 45-minute feed, the mosquitoes were immediately preserved at −20 °C. The blood meal size was determined for each mosquito via hemoglobinometry as previously described. Luminescence and calcium assay data were normalized and fitted with a non-linear least squares regression to generate dose-response curves, EC50 and IC50 values. Unpaired t-tests or Dunnett’s multiple comparisons test were performed accordingly to compare EC50 or IC50 values. Locomotion was measured based on the distance required for flight recovery. Data were compared with the Kruskal-Wallis and Dunnett’s multiple comparison tests after the Kolmogorov-Smirnov normality test was conducted. In the blood-feeding experiments, the percentage of blood-fed mosquitoes was calculated for each treatment group. For each biological replicate, the treatment groups were normalized with respect to the untreated group. Dunnett’s multiple comparison tests were utilized to determine statistical difference between normalized data. Size of bloodmeals were compared with an unpaired t-test or Mann-Whitney test after normality was evaluated with the Kolmogorov-Smirnov test. All analyses were performed utilizing GraphPad Prism version 7.00 for Mac OS X, GraphPad Software, La Jolla California USA, www.graphpad.com.

[2] = system: Ae. aegypti; test: Mortality on 10% sucrose solution containing compound; type: in vivo; conditions: after a three-day period
Procedure: The serotonergic system was manipulated to identify its role in blood-feeding behavior. To allow for the depletion of 5-HT, mosquitoes were fed a 10% sucrose solution containing varying concentrations (1, 5, 10, 25, and 60 mg/mL) of PCPA ethyl ester, a compound that […] tryptophan hydroxylase, a crucial enzyme in 5-HT synthesis. At the two highest concentrations (25 and 60 mg/mL), there was a 100% mortality rate after a three-day period. […] In comparison to the control group, which ingested an average volume of 1.87μL of blood, the average blood meal size for 1 and 5 mg/mL PCPA-treated groups was 1.84 ± 0.16 μL (p = 0.89) and 2.33 ± 0.25 μL (p = 0.12), respectively.
Sucrose solution was withheld from newly-emerged mosquitoes for two days. On the third day, the mosquitoes were presented with a cotton ball saturated with 400 μL of a 10% sucrose solution laced with compound or the respective control for five days. The cotton ball was exchanged every other day with a fresh one.

[3] = target: T1, AGAP002232 (Anopheles gambiae, UniProt A0A1S4GEY1); test: Fluo-4 calcium assay in CRE-luc2P HEK-293 cells expressing AGAP002232; type: cell-based; conditions: for Response to biogenic amines: 10^−4 M, AGAP002232; for Ability to inhibit activity in a dose-response manner: antagonist test, receptor not given, taken as both 5-HT2 cell lines
T1 sequence (A0A1S4GEY1 entry or part of it): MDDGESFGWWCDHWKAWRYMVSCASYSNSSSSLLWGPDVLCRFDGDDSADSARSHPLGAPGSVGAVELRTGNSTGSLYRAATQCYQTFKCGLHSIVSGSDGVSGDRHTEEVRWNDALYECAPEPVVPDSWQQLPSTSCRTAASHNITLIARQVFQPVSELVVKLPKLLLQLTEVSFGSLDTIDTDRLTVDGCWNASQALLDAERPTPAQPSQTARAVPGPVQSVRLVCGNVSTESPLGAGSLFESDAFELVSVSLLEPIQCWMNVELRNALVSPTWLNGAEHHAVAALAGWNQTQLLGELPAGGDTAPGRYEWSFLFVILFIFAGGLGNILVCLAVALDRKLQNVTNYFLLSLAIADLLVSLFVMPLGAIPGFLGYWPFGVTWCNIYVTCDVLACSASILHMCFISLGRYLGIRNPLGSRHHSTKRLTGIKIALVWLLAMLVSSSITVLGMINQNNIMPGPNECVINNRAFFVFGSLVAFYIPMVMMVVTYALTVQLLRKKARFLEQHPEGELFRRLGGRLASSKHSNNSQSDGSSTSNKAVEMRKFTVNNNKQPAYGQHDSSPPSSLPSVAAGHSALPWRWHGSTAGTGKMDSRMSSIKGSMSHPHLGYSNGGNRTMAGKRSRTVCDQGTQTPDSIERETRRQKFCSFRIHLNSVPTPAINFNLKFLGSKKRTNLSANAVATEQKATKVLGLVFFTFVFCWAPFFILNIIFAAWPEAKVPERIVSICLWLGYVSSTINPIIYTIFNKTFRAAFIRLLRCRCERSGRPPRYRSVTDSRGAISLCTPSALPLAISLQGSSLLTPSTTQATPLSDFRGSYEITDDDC
Procedure: The GloResponse™ CRE-luc2P human embryonic kidney (HEK-293) reporter cells were incubated at 37 °C with an atmosphere of 5% CO2, and maintained in Dulbecco’s Modified Eagle Medium (DMEM) supplemented with 10% fetal bovine serum (FBS) and […] hygromycin B. Transfection of the HEK-293 cells with 1 μg of plasmid DNA was performed with Amaxa Nucleofector™ technology (Lonza, Basel, Switzerland) as per manufacturer’s instructions. A week post-transfection, selective pressure was applied with […] of G418 antibiotic to generate stable lines.
(§1) 1 × 10^6 cells per well were seeded into a 96-well black all-clear bottom plate and incubated overnight in 10% FBS/90% DMEM at 37 °C with an atmosphere of 5% CO2. The following day, 2X Fluo-4 Direct calcium dye (Molecular Devices LLC, San Jose, CA) was added to each well and incubated in the same conditions for 45 minutes before the assay was completed. At this time, serial dilutions of the test compounds were prepared in a 96-well clear flat bottom plate. Fluorescence levels were determined with a FlexStation3 microplate reader, with excitation and emission wavelengths set to 485 and 525 nm, respectively (Molecular Devices LLC). Basal fluorescence levels were measured for 17 seconds, at which time, 25 μl of the agonist compound was added. Fluorescence measurements continued to be recorded for a total of 120 seconds at 2-second intervals. When testing antagonists, cells were treated with the compound prior to determination of fluorescence levels.
(§2) Luminescence and calcium assay data were normalized and fitted with a non-linear least squares regression to generate dose-response curves, EC50 and IC50 values. Unpaired t-tests or Dunnett’s multiple comparisons test were performed accordingly to compare EC50 or IC50 values. Locomotion was measured based on the distance required for flight recovery. Data were compared with the Kruskal-Wallis and Dunnett’s multiple comparison tests after the Kolmogorov-Smirnov normality test was conducted. In the blood-feeding experiments, the percentage of blood-fed mosquitoes was calculated for each treatment group. For each biological replicate, the treatment groups were normalized with respect to the untreated group. Dunnett’s multiple comparison tests were utilized to determine statistical difference between normalized data. Size of bloodmeals were compared with an unpaired t-test or Mann-Whitney test after normality was evaluated with the Kolmogorov-Smirnov test. All analyses were performed utilizing GraphPad Prism version 7.00 for Mac OS X, GraphPad Software, La Jolla California USA, www.graphpad.com.

[4] = target: T2, AGAP002229 (Anopheles gambiae, UniProt A7UR33); test: Fluo-4 calcium assay in CRE-luc2P HEK-293 cells expressing AGAP002229; type: cell-based; conditions: for Response to biogenic amines: 10^−4 M; for Response to biogenic amines / Receptor activation by agonist: AGAP002229; for Ability to inhibit activity in a dose-response manner: antagonist test, receptor not given, taken as both 5-HT2 cell lines
T2 sequence (A7UR33 entry or part of it): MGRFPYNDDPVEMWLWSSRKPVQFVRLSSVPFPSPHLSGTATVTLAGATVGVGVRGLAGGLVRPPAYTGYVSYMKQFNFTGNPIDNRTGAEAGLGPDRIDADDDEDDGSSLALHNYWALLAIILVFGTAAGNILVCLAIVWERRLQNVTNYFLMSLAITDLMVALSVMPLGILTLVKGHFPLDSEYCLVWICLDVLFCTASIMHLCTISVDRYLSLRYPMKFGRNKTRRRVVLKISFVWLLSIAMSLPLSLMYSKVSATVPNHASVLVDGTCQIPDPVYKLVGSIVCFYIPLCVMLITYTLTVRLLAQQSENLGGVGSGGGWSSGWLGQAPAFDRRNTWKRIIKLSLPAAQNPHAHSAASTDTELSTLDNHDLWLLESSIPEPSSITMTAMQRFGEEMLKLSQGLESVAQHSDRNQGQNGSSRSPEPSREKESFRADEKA
Procedure: A week post-transfection, selective pressure was applied with […] of G418 antibiotic to generate stable lines.
as §1, with “Fluorescence levels were determined with a FlexStation3 microplate reader, with excitation and emission wavelengths set to 485 and 525 nm, respectively (Molecular Devices LLC). Basal fluorescence levels were measured for 17 seconds, at which time, 25 μl of the agonist compound was added.” left out
as §2

[5] = target: T1, AGAP002232; test: GloResponse CRE-luc2P cyclic AMP reporter (luminescence) assay, AGAP002232; type: cell-based; conditions: 10^−4 M
Procedure: (§3) The reporter construct in the HEK-293 cells regulated the transcription of the luciferase gene in response to cAMP levels, while the Rluc-Neo^r construct in the pF9a expression plasmid served as a normalizing agent. Cells suspended in 1% FBS/99% DMEM without phenol red were seeded in white 96-well plates at a density of 6.6 × 10^5 per well, and immediately treated with varying concentrations of compounds. Following a 4-hour incubation at 37 °C with an atmosphere of 5% CO2, the cells were prepared for a Dual-Glo luciferase assay according to the manufacturer’s instructions (Promega Corporation, Madison, WI). The luminescence units were measured on the SpectraMax L 96 microplate luminometer (Molecular Devices, Sunnyvale, CA) and normalized to the cell number.

[6] = system: Ae. aegypti; test: Flight performance in flight cylinder after microinjection; type: in vivo, Aedes aegypti
Procedure: (§4) Stock solutions of the compounds were diluted to the appropriate concentrations in 1X phosphate buffer solution (PBS). To account for potential solvent effects, an ultrapure H2O control group was included in every independent experiment. Female mosquitoes were either cold- or CO2-anesthetized. A Nanoject II Auto-Nanoliter Injector (Drummond Scientific Company, Broomall, PA) was then utilized to microinject 69 nL of compound into the spiracle.
A flight cylinder was assembled as described previously. The polyacrylamide sheet was coated with Tangle-Trap Sticky Coating (The Scotts Company LLC, Marysville, OH) and allowed to sit overnight before insertion into the flight cylinder. Adult mosquitoes were anesthetized on a CO2 pad and microinjected with the compound or ultrapure H2O control. Post-injection, they were permitted to recover in a fly vial for 30 minutes before being ejected into the flight cylinder. After each trial, the distance between the top of the cylinder and the trapped mosquito was recorded. Mosquitoes captured in the fly vial at the bottom of the cylinder were considered to be incapable of flying and a distance of 91.5 cm was recorded.
as §2

[7] = target: T2, AGAP002229; test: GloResponse CRE-luc2P cyclic AMP reporter (luminescence) assay, AGAP002229; type: cell-based; conditions: 10^−4 M
Procedure: as §3

[8] = system: Ae. aegypti; test: Blood-feeding assay (artificial membrane feeder) after microinjection; type: in vivo, Aedes aegypti; conditions: 10 mM microinjected
Procedure: as §4
Seven to ten-day old female mosquitoes were treated with compound or appropriate control through microinjection post cold-anesthetization or ingestion. Two mL of human O^+ blood (BioChemed Services, Winchester, VA) was utilized to cover the concave surface of an inverted baby food jar. Hog intestine sealed the opening to simulate the puncturing of a host’s skin. The feeding membrane was placed on the top of a mosquito cage, and hot water was poured into the jar to warm the blood. After a 45-minute feed, the mosquitoes were immediately preserved at −20 °C. The blood meal size was determined for each mosquito via hemoglobinometry as previously described.
as §2

[9] = system: 5-HT7 receptors; design: method as in PMID 11282322; conditions: in humans; cited from earlier work

## CCOC(=O)C(N)Cc1ccc(Cl)cc1.Cl (racemic) [PCPA ethyl ester, 4-chloro-DL-chlorophenylalanine ethyl ester hydrochloride]
[1]; 1 mg/mL in 10% sucrose
  Average blood meal size: 1.84 ± 0.16 µL
  Feeding success or blood meal volume versus control: did not demonstrate any significant difference
[1]; 5 mg/mL in 10% sucrose
  Average blood meal size: 2.33 ± 0.25 µL
  Feeding success or blood meal volume versus control: did not demonstrate any significant difference
[1]; 10 mg/mL in 10% sucrose
  Average blood meal size: 3.53 ± 0.16 µL
  Blood feeding success rate: 73.2%
[2]; 25 mg/mL in 10% sucrose
  Mortality rate: 100%
[2]; 60 mg/mL in 10% sucrose
  Mortality rate: 100%

## NCC(O)c1ccc(O)cc1 (racemic) [octopamine, (±)-octopamine hydrochloride]
[3]
  Response to biogenic amines: indiscernible from background levels
[4]
  Response to biogenic amines: indiscernible from background levels

## NCCc1c[nH]c2ccc(O)cc12 [5-HT, serotonin hydrochloride]
[3]
  EC50: 1.9 µM
[5]
  Receptor response (cyclic AMP) under Gαs and Gαi/o conditions: no measurable responses
[4]
  EC50: 0.0874 µM
[6]; 10 mM
  Effect on flight compared to H2O alone: did not affect flight
[6]; 10 mM, Fig. 5c
  Average distance in flight cylinder: 25.1 cm
[6]; concentrations greater than 10 mM
  Ability to fly: completely inhibited the mosquitoes’ ability to fly
[7]
  Receptor response (cyclic AMP) under Gαs and Gαi/o conditions: no measurable responses
[8]
  Successfully blood-fed, normalized to the untreated group: approximately 80%

## COc1ccc2[nH]cc(CCN)c2c1 [5-MT, 5-methoxytryptamine]
[4]
  EC50: 1.08 µM
  Receptor activation by agonist: able to activate

## NCCc1c[nH]c2ccc(C(N)=O)cc12 [5-carboxamidotryptamine]
[9]
  Affinity for 5-HT7 receptors: strong affinity

## CCCN(CCC)C1CCc2cccc(O)c2C1 (stereo not drawn) [8-OH-DPAT]
[9]
  Affinity for 5-HT7 receptors: strong affinity

## NCCc1ccc(O)c(O)c1 [dopamine, dopamine hydrochloride]
[3]
  Response to biogenic amines: indiscernible from background levels
[4]
  Response to biogenic amines: indiscernible from background levels

## NCCc1c[nH]cn1 [histamine]
[3]
  Response to biogenic amines: indiscernible from background levels
[4]
  Response to biogenic amines: indiscernible from background levels

## CN1CCN2c3ccccc3Cc3ccccc3C2C1 (stereo not drawn) [mianserin, mianserin hydrochloride]
[3]
  Ability to inhibit activity in a dose-response manner: only the former two exhibited the ability to inhibit activity
[4]
  Ability to inhibit activity in a dose-response manner: only the former two exhibited the ability to inhibit activity

## O=C(CCCN1CCC2(CC1)C(=O)NCN2c1ccccc1)c1ccc(F)cc1 [spiperone]
[3]
  Ability to inhibit activity in a dose-response manner: only the former two exhibited the ability to inhibit activity
[4]
  Ability to inhibit activity in a dose-response manner: only the former two exhibited the ability to inhibit activity

## NCCc1c[nH]c2ccccc12 [tryptamine, tryptamine hydrochloride]
[4]
  EC50: 2.76 µM
  Receptor activation by agonist: able to activate

## NCCc1ccc(O)cc1 [tyramine, tyramine hydrochloride]
[3]
  Response to biogenic amines: indiscernible from background levels
[4]
  Response to biogenic amines: indiscernible from background levels

## COC(=O)[C@@H]1[C@H]2C[C@H]3c4[nH]c5ccccc5c4CCN3C[C@@H]2CC[C@@H]1O [yohimbine, yohimbine hydrochloride]
[3]
  Ability to inhibit activity in a dose-response manner: only the former two exhibited the ability to inhibit activity
[4]
  Ability to inhibit activity in a dose-response manner: only the former two exhibited the ability to inhibit activity
